Measurements reported in patent publication US20260083708A1, “IL-17 MODULATORS AND USES THEREOF” (NNOCARE PHARMA INC., priority 2024, published 2026).

How the values were obtained:
IL-17AA and IL-17RA = target: T1, IL-17AA and IL-17RA (Homo sapiens, UniProt Q16552); experiment: Competitive inhibition of human IL-17AA and IL-17RA binding (HTRF); conditions: recombinant IL-17AA (His-tag) and IL-17RA (hFc-tag); read-out: IC50 for Inhibiting IL-AA/IL-RA Binding
T1 construct: purchased Sino Biological 12047-H07B (IL-17AA); 10895-H02H (IL-17RA)
T1 sequence (Q16552 24-155): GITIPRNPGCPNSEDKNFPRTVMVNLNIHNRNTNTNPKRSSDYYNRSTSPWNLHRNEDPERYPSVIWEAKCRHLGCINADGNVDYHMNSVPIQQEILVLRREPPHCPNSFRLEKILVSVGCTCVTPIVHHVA
Summary of the method: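 His-IL-17AA (1 nM) premixed 1 h with anti-His-Tb (0.4 nM), and Fc-IL-17RA (1 nM) with anti-IgG-d2 (1 μg/mL); these are pre-mix levels. Compounds, diluted from 10 μM, preincubated 2 h RT with IL-17AA mix; IL-17RA mix then added, 20 min. 665/615 ratio vs no-compound and no-IL-17AA controls; IC50 by 4-parameter fit.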

[1] = system: IL-17AA-induced IL-17 signaling pathway; experiment: Inhibition of IL-17AA-induced IL-17 signaling pathway in HEK-Blue IL-17 reporter cells (SEAP); assay type: cell-based; conditions: Homo sapiens; HEK-Blue IL-17 cells, IL-17AA 2.5 ng/mL, 20 hours; read-out: IC50 for Inhibiting IL-AA Signaling
Summary of the method: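 HEK-Blue IL-17 cells (HEK293 expressing human IL-17RA/RC, ACT1 and NF-κB/AP-1-driven SEAP), 10,000/well, pre-incubated with compound (serial dilution from 10 μM) for 1 h at 37 °C, then stimulated with IL-17AA at 2.5 ng/mL final for 20 h. SEAP in supernatant read with Quanti-Blue at 620 nm; IC50 by 4-parameter fit.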

[2] = system: IL-17AF-induced IL-17 signaling pathway; experiment: Inhibition of IL-17AF-induced IL-17 signaling pathway; assay type: cell-based; conditions: Homo sapiens; IL-17AF used instead of IL-17AA; read-out: IC50 for Inhibiting IL-AF Signaling
Summary of the method: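 HEK293-derived HEK-Blue IL-17 cells (IL-17RA/RC, ACT1, NF-κB/AP-1-driven SEAP) preincubated 1 hour at 37° C with serially diluted compound from 10 μM, then stimulated with IL-17AF for 20 hours. SEAP read colorimetrically at 620 nm; IC50 from 4-parameter fit of % inhibition.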

IC50 (IL-17AA and IL-17RA) [nM] | IC50 [1] [nM] | IC50 [2] [nM] | SMILES
442 | 85 | 251 | CCn1nccc1C(=O)N[C@H](C(=O)Nc1ccc([C@H](C)[C@@H](NC(=O)COC)c2nnc(C)s2)cc1F)C(C1CC1)C1CC1 [Compound 17, N-((S)-1,1-dicyclopropyl-3-((2-fluoro-4-((1R,2S)-1-(2-methoxyacetamido)-1-(5-methyl-1,3,4-thiadiazol-2-yl)propan-2-yl)phenyl)amino)-3-oxopropan-2-yl)-1-ethyl-1H-pyrazole-5-carboxamide]
16 | 31 | 133 | CCn1nccc1C(=O)N[C@H](C(=O)Nc1ccc([C@H](C)[C@@H](NC(=O)COC)c2nncn2CC2CCOCC2)cc1F)C(C1CC1)C1CC1 [Compound 9, N-((S)-1,1-dicyclopropyl-3-((2-fluoro-4-((1R,2S)-1-(2-methoxyacetamido)-1-(4-((tetrahydro-2H-pyran-4-yl)methyl)-4H-1,2,4-triazol-3-yl)propan-2-yl)phenyl)amino)-3-oxopropan-2-yl)-1-ethyl-1H-pyrazole-5-carboxamide]
13 | 44 | 92 | COCC(=O)N[C@@H](c1nncn1CC1CC1)[C@@H](C)c1ccc(NC(=O)[C@@H](NC(=O)C2(F)CC2)C(C2CC2)C2CC2)c(F)c1 [Compound 11, N-((S)-1,1-dicyclopropyl-3-((4-((1R,2S)-1-(4-(cyclopropylmethyl)-4H-1,2,4-triazol-3-yl)-1-(2-methoxyacetamido)propan-2-yl)-2-fluorophenyl)amino)-3-oxopropan-2-yl)-1-fluorocyclopropane-1-carboxamide]
21 | 45 | 39 | CCC(=O)N[C@H](c1ncnn1CC1CC1)[C@@H](C)c1ccc(NC(=O)[C@@H](NC(=O)c2nonc2C)C(C2CC2)C2CC2)c(F)c1 [Compound 83, N-((S)-1,1-dicyclopropyl-3-((4-((1S,2S)-1-(1-(cyclopropylmethyl)-1H-1,2,4-triazol-5-yl)-1-propionamidopropan-2-yl)-2-fluorophenyl)amino)-3-oxopropan-2-yl)-4-methyl-1,2,5-oxadiazole-3-carboxamide]
174 | 153 | 180 | CCC(=O)N[C@@H](c1ncnn1CC1CC1)[C@@H](C)c1ccc(NC(=O)[C@@H](NC(=O)c2ccnn2C2CN(C)C2)C(C2CC2)C2CC2)c(F)c1 [Compound 73, N—((S)-1,1-dicyclopropyl-3-((4-((1R,2S)-1-(1-(cyclopropylmethyl)-1H-1,2,4-triazol-5-yl)-1-propionamidopropan-2-yl)-2-fluorophenyl)amino)-3-oxopropan-2-yl)-1-(1-methylazetidin-3-yl)-1H-pyrazole-5-carboxamide]
6.3 | 6.3 | 13 | CCn1nccc1C(=O)N[C@H](C(=O)Nc1ccc([C@H](C)[C@@H](NC(=O)[C@H](C)OC)c2nncn2CC2CC2)cc1F)C(C1CC1)C1CC1 [Compound 16, N-((S)-1,1-dicyclopropyl-3-((4-((1R,2S)-1-(4-(cyclopropylmethyl)-4H-1,2,4-triazol-3-yl)-1-((S)-2-methoxypropanamido)propan-2-yl)-2-fluorophenyl)amino)-3-oxopropan-2-yl)-1-ethyl-1H-pyrazole-5-carboxamide]
109 | 277 | 1040 | COCC(=O)N[C@@H](c1nncn1CC1CC1)[C@@H](C)c1ccc(NC(=O)[C@@H](NC(=O)COCC2(C(F)F)COC2)C(C2CC2)C2CC2)c(F)c1 [Compound 10, (S)-3,3-dicyclopropyl-N-(4-((1R,2S)-1-(4-(cyclopropylmethyl)-4H-1,2,4-triazol-3-yl)-1-(2-methoxyacetamido)propan-2-yl)-2-fluorophenyl)-2-(2-((3-(difluoromethyl)oxetan-3-yl)methoxy)acetamido)propanamide]
1.4 | 5 | 3.8 | [2H]C([2H])([2H])OCC(=O)N[C@@H](c1ncnn1CC1CC1)[C@@H](C)c1ccc(NC(=O)[C@@H](NC(=O)c2nonc2C)C(C2CC2)C2CC2)c(F)c1 [Compound 58, N-((S)-1,1-dicyclopropyl-3-((4-((1R,2S)-1-(1-(cyclopropylmethyl)-1H-1,2,4-triazol-5-yl)-1-(2-(methoxy-d3)acetamido)propan-2-yl)-2-fluorophenyl)amino)-3-oxopropan-2-yl)-4-methyl-1,2,5-oxadiazole-3-carboxamide]
0.9 | 2.8 | 3.6 | Cc1nonc1C(=O)N[C@H](C(=O)Nc1ccc([C@H](C)[C@@H](NC(=O)COC(F)F)c2ncnn2CC2CC2)cc1F)C(C1CC1)C1CC1 [Compound 65, N-((S)-1,1-dicyclopropyl-3-((4-((1R,2S)-1-(1-(cyclopropylmethyl)-1H-1,2,4-triazol-5-yl)-1-(2-(difluoromethoxy)acetamido)propan-2-yl)-2-fluorophenyl)amino)-3-oxopropan-2-yl)-4-methyl-1,2,5-oxadiazole-3-carboxamide]
5.6 | 7.9 | 26 | CCn1ncnc1C(=O)N[C@H](C(=O)Nc1ccc([C@H](C)[C@@H](NC(=O)COC)c2ncnn2CC2CC2)cc1F)C(C1CC1)C1CC1 [Compound 50, N-((S)-1,1-dicyclopropyl-3-((4-((1R,2S)-1-(1-(cyclopropylmethyl)-1H-1,2,4-triazol-5-yl)-1-(2-methoxyacetamido)propan-2-yl)-2-fluorophenyl)amino)-3-oxopropan-2-yl)-1-ethyl-1H-1,2,4-triazole-5-carboxamide]
7.5 | 2.9 | 7 | CCn1nccc1C(=O)N[C@H](C(=O)Nc1ccc([C@H](C)[C@@H](NC(=O)COC)c2nccn2CC2CC2)cc1F)C(C1CC1)C1CC1 [Compound 38, N-((S)-1,1-dicyclopropyl-3-((4-((1R,2S)-1-(1-(cyclopropylmethyl)-1H-imidazol-2-yl)-1-(2-methoxyacetamido)propan-2-yl)-2-fluorophenyl)amino)-3-oxopropan-2-yl)-1-ethyl-1H-pyrazole-5-carboxamide]
13 | 42 | 74 | [2H]C([2H])([2H])n1nccc1C(=O)N[C@H](C(=O)Nc1ccc([C@H](C)[C@@H](NC(=O)CO)c2ncnn2CC2CC2)cc1F)C(C1CC1)C1CC1 [Compound 69, N-((S)-1,1-dicyclopropyl-3-((4-((1R,2S)-1-(1-(cyclopropylmethyl)-1H-1,2,4-triazol-5-yl)-1-(2-hydroxyacetamido)propan-2-yl)-2-fluorophenyl)amino)-3-oxopropan-2-yl)-1-(methyl-d3)-1H-pyrazole-5-carboxamide]
28 | 93 | 87 | CCn1nccc1C(=O)N[C@H](C(=O)Nc1ccc([C@H](C)[C@@H](NC(=O)CO)c2ncnn2CC2CC2)cc1F)C(C1CC1)C1CC1 [Compound 49, N-((S)-1,1-dicyclopropyl-3-((4-((1R,2S)-1-(1-(cyclopropylmethyl)-1H-1,2,4-triazol-5-yl)-1-(2-hydroxyacetamido)propan-2-yl)-2-fluorophenyl)amino)-3-oxopropan-2-yl)-1-ethyl-1H-pyrazole-5-carboxamide]
4.9 | 5.1 | 11 | CCn1nccc1C(=O)N[C@H](C(=O)Nc1ccc([C@H](C)[C@@H](NC(=O)COC)c2ncnn2CC2CC2)cc1F)C1CCCCCC1 [Compound 42, N-((S)-1-cycloheptyl-2-((4-((1R,2S)-1-(1-(cyclopropylmethyl)-1H-1,2,4-triazol-5-yl)-1-(2-methoxyacetamido)propan-2-yl)-2-fluorophenyl)amino)-2-oxoethyl)-1-ethyl-1H-pyrazole-5-carboxamide]
7.4 | 5.6 | 16 | COCC(=O)N[C@@H](c1ncnn1CC1CC1)[C@@H](C)c1ccc(NC(=O)[C@@H](NC(=O)c2ccnn2C)C(C2CC2)C2CC2)c(F)c1 [Compound 53, N-((S)-1,1-dicyclopropyl-3-((4-((1R,2S)-1-(1-(cyclopropylmethyl)-1H-1,2,4-triazol-5-yl)-1-(2-methoxyacetamido)propan-2-yl)-2-fluorophenyl)amino)-3-oxopropan-2-yl)-1-methyl-1H-pyrazole-5-carboxamide]
41 | 13 | 202 | CCn1nccc1C(=O)N[C@H](C(=O)Nc1ccc([C@H](C)[C@@H](NC(=O)COC)c2ncnn2CC2CC2)cn1)C(C1CC1)C1CC1 [Compound 48, N-((S)-1,1-dicyclopropyl-3-((5-((1R,2S)-1-(1-(cyclopropylmethyl)-1H-1,2,4-triazol-5-yl)-1-(2-methoxyacetamido)propan-2-yl)pyridin-2-yl)amino)-3-oxopropan-2-yl)-1-ethyl-1H-pyrazole-5-carboxamide]
